Source: publication PMC2939063, “In Vitro and In Vivo Studies of the Trypanocidal Properties of WRR-483 against Trypanosoma cruzi” (PLoS Neglected Tropical Diseases, 2010)
“Also recorded” adds a separate entry of the source.

Assays:
[1] = test system: T. cruzi CA-I/72 infected C3H mice; test: Murine model of acute Chagas' disease; type: in vivo, mouse; set-up: key to Histopathology, Heart / Histopathology, Liver / Histopathology, Spleen / Histopathology, Colon: I/I: Inflammation and infiltration; +10A: Numerous nests of T. cruzi amastigotes; +A: 1-3 nests of T. cruzi amastigotes; Negative
Experimental: Three to four week old female C3H mice weighing ca. 20 g were used. The animals were separated into five lots of 5 mice per cage and infected with 10^6 tissue-culture derived trypomastigotes of the myotropic T. cruzi CA-I/72 cloned stock. The mice were treated with 100 mg compound/kg of body weight in 100 µL of solution (30–40% DMSO: 60–70% sterile distilled water) intraperitoneally twice a day. Treatment was initiated 12 h post infection and continued until cure, death of the animals, or for a total of 20 days. […] Parasitemias was determined at the end of the experiment when animals were euthanized. Tissues processed for histopathology include skeletal muscle, heart, liver, spleen, and colon. Blood (5–50 µL) was used for hemocultures. […] Compounds were considered toxic if life expectancy is lower than untreated controls (negative values). If necessary, PCR of blood and tissues was performed to confirm effectiveness of treatment and/or cure of treated animals. Results were expressed as survival (days) of treated animals.

Entamoeba histolytica = settings: human colonic xenograft model; cited from earlier work
tbcatB = biological target: T1, tbcatB (Trypanosoma brucei, UniProt Q6R7Z5); test: tbcatB enzyme assay; type: biochemical
T1 construct: made in house
T1 sequence (Q6R7Z5 23-340): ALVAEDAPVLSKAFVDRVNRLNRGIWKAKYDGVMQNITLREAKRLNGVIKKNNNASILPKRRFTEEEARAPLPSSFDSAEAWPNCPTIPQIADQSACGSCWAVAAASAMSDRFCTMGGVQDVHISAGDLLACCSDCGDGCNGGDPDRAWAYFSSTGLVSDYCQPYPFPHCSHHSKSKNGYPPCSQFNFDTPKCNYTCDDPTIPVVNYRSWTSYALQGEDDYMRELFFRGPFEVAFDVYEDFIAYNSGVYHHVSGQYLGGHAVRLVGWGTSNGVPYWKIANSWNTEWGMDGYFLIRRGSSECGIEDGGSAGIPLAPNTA
Experimental: (§1) Cruzain[27],[28], rhodesain [29], and tbcatB [30] were recombinantly expressed as described previously. TbcatB assays were performed as described previously.[31] Cruzain (2 nM) or rhodesain (3 nM) was incubated with 0.5 to 10 µM inhibitor concentration in 100 mM sodium acetate at pH 5.5, containing 5 mM DTT (buffer A) for 5 min at room temperature. Then buffer A containing Z-Phe-Arg-AMC (Bachem, K M = 1 µM) was added to enzyme inhibitor to give 20 µM substrate concentration in 200 µL, and the increase in fluorescence (excitation at 355 nm and emission at 460 nm) was followed with an automated microtiter plate spectrofluorometer (Molecular Devices, Flex station). Inhibitor stock solutions were prepared at 20 mM in DMSO, and serial dilutions were made in DMSO (0.7% DMSO in assay). Controls were performed using enzyme alone and enzyme with DMSO. IC50 values were determined graphically using inhibitor concentrations in the linear portion of a plot of inhibition versus log[I] (seven concentrations tested with at least two in the linear range).
(§2) Inhibitor dilutions which produce simple exponential progress curves over a wide range of k obs, were used to determine kinetic parameters. The value of k obs, the rate constant for loss of enzyme activity, was determined from an equation for pseudo first order dynamics using Prism 4.0 (GraphPad). When k obs varied linearly with inhibitor concentration, k ass was determined by linear regression analysis. If the variation was hyperbolic, indicating saturation inhibition kinetics, k inact and K i were determined from an equation describing a two-step irreversible inhibitor mechanism [k obs = k inact [I]o/([I]o+Ki* (1+[S]o/K M))] and non-linear regression analysis Prism 4.0.[32] All values were corrected for substrate concentration.

[2] = Pharmacokinetic study (SRI international); settings: in vivo
Excerpt: In this study, we have identified WRR-483, as an effective agent to treat acute Chagas' disease in a murine model. […] The crystal structure of WRR-483 complexed to cruzain was solved and established the binding mode of the inhibitor to the enzyme. This structure was highlighted by the formation of a salt bridge between the guanidine moiety of the inhibitor and Glu208, but in a different conformation when compared to another structure of cruzain bound to a different arginine-containing inhibitor. […] The no observed adverse effect level (NOAEL) is higher than 100 mg/kg. […] Further studies to understand the precise mechanism of trypanocidal action of WRR-483 and design of analogs with improved bioavailability are currently underway.

Cathepsin S = biological target: T2, Cathepsin S (Homo sapiens, UniProt P25774); test: Protease inhibition profiling (Reaction Biology Corp): Cathepsin S; type: biochemical
T2 construct: Reaction Biology Corp (screening service)

[3] = test system: T. cruzi infection in BESM cells; test: Dose-response against T. cruzi infection in BESM cells; type: cell-based, Trypanosoma cruzi CA-I/72; settings: Trypanosoma cruzi, 72 h
Experimental: Monolayers were then infected with 1000 trypomastigotes/well of CA-I/72 T. cruzi for 2 h at 37°C. […] Cultures were then incubated for 72 h at 37°C in a humidified atmosphere with 5% CO2. Cultures were next fixed in 4% fresh paraformaldehyde in PBS, stained with DAPI, and counted under a fluorescence microscope (400×). Mean numbers of parasites per cell (±SE) were calculated as previously reported (n = 3-4 per concentration). Controls consisted of untreated wells and cultures similarly treated with 10 μM […] and 0.1 μM posaconazole.

Rhodesain = biological target: T3, Rhodesain (Trypanosoma brucei rhodesiense, UniProt Q95PM0); test: Rhodesain enzyme assay (acetate buffer pH 5.5, Z-Phe-Arg-AMC); type: biochemical, T. brucei
T3 construct: made in house
Experimental: as §1, §2

Cruzain = biological target: T4, Cruzain (Trypanosoma cruzi, UniProt P25779); test: biochemical; type: biochemical
T4 construct: made in house
Experimental: For pH dependence studies, cruzain was tested at 4 nM in 5 µM Z-Phe-Arg-AMC in 0.15 M citrate phosphate buffer at pH 5.5 and pH 8.0 with 5 mM DTT, and 0.01% Triton-X 100. Enzyme was added to wells of a 96-well microtiter plate containing substrate and inhibitor diluted in DMSO (0.5% final concentration), or DMSO control. Final inhibitor concentration ranged from 0.01 µM to 10 µM. Experiments were done in triplicate. Assays were run at 25°C in an automated microtiter plate spectrofluorometer, with robotic delivery of enzyme and readings every 1.52 seconds throughout the assay, before and after enzyme addition.
as §2

[4] = individual infected mice, 100 mg/kg ip
[5] = individual infected mice, 100 mg/kg ip, 100 mg/kg
[6] = pH 5.5, citrate phosphate buffer
[7] = pH 8.0, citrate phosphate buffer

T4 sequence (P25779 123-337 limits assumed): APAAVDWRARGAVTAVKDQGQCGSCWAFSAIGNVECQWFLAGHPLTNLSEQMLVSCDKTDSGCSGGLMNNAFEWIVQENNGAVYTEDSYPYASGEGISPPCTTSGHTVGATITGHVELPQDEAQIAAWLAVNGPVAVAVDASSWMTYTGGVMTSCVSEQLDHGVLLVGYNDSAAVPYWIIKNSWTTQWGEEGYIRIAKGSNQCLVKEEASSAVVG
T3 sequence (Q95PM0 entry or part of it): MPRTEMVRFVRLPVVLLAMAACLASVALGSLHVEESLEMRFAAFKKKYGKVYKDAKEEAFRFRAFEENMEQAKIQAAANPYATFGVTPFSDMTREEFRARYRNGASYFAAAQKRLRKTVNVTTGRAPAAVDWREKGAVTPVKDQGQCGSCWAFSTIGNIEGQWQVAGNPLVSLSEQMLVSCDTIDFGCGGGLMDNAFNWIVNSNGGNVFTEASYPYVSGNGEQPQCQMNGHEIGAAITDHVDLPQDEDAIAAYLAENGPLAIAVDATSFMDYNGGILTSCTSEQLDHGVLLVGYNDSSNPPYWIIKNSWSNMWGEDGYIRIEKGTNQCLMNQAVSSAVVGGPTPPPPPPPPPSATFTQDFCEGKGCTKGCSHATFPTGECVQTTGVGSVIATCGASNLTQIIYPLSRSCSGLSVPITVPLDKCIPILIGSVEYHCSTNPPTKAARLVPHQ
T2 sequence (P25774 115-331, species assumed): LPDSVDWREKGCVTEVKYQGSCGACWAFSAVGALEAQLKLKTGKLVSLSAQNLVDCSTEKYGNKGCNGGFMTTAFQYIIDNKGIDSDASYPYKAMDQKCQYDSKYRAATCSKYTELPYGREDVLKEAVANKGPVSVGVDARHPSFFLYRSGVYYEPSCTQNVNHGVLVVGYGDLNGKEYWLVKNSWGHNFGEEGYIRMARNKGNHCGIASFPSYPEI

CN1CCN(C(=O)N[C@@H](CCCNC(=N)N)C(=O)N[C@H](/C=C/S(=O)(=O)c2ccccc2)CCc2ccccc2)CC1 [WRR-483]
T. cruzi infected mouse survival ([1]; 100 mg inhibitor/kg body weight in two daily doses, intraperitoneally, untreated control 21 days): 110 days | survival of the acute infection ([1]; 10^6 trypomastigotes CA-I/72, untreated controls died within 21–60 days): survived the acute infection | Histopathology, Colon [1, 4]: N | Histopathology, Liver [1, 4]: N | Histopathology, Spleen [1, 4]: N | Histopathology, Heart [1, 5]: N and Mild i/i | Histopathology, Sk. muscle [1, 5]: Moderate i/i; also recorded: +AIntense i/i | reduction of amebic invasion (Entamoeba histolytica): 95% | inhibition of tbcatB (in words) (tbcatB): weak inhibitors | inhibition at 1 µM (tbcatB; read-out: tbcatB % inhibition at 1 µM, 1 µM inhibitor): 26% | Vd ([2]; 10 mg dose iv): 15.1 L/kg | clearance ([2]; 10 mg dose iv): 27.5 mL/min/kg | half-life ([2]; 10 mg dose iv): 6.4 h | bioavailability ([2]; oral, read-out: oral bioavailability %F): < 1% | IC50 (Cathepsin S): 1.4 ± 0.01 nM | EC50 [3]: 200 nM | k obs/[I] at 1 µM, Rhodesain (Rhodesain; 100 mM sodium acetate pH 5.5, 5 mM DTT): No inhibition | inhibition of rhodesain (Rhodesain; even at 10 µM concentration): no inhibition | improvement of cruzain IC50 at pH 8.0 than at pH 5.5 (Cruzain; citrate phosphate buffer): ~10 fold | increase in the second-order rate of inactivation of cruzain, pH 8.0 vs pH 5.5 (Cruzain; citrate phosphate buffer): 4 fold | IC50 (Cruzain; [6]): 70 ± 30 nM | k inact/K i, cruzain (Cruzain; [6]): 14,000±240 s^-1 M^-1 | IC50 (Cruzain; [7]): 8 ± 2 nM | k inact/K i, cruzain (Cruzain; [7]): 62,000±350 s^-1 M^-1
